Experimental data published in PMC12020424, “Identification and Validation of Cyclic Peptides with Mucin-Selective, Location-Specific Binding in the Gastrointestinal Tract” (ACS Nano, 2025).
Bridge positions count the residues as written; N and C are the ends. Ends that are not written are not given here.

Columns and labels:
[1] = system: MUC5AC-containing stomach tissue; experiment: Ex vivo fluorescent binding to stomach tissue; design: species or system porcine; conditions: MUC5AC-selective peptides to stomach
Excerpt: After identifying the peptide hits for each mucin, we tested their binding in an ex vivo setting (Figure S1), evaluating their interaction with mucin-containing porcine tissue and semiquantitatively representing it through fluorescent imaging (Figure 3a). The cyclic peptides were synthesized and conjugated to a fluorophore, Alexa Fluor 647 (AF647), at the N-terminus to allow fluorescent imaging to be used to semiquantitatively measure the peptides’ ex vivo tissue binding, compared to free AF647 and AF647 conjugated to wheat germ agglutinin (WGA), a known lectin for glycoproteins.[40] […] Porcine GI tissue was used due to its similarity in mucin expression compared to human GI tissue and its capacity to source large surface areas of tissue for experiments.[41],[42] Representative IVIS images are shown in Figure 3b-e, where the first four columns represent the four identified peptides (M2.1–M2.4 in Figure 3b,c, M5.1–M5.4 in Figure 3d,e), the fifth column represents WGA-AF647, and the sixth column represents AF647. The “score” results for the peptide ligands are presented in Figure 3f,g for the mucins of interest, with Tables S2–S5 and Figure S3 detailing results for the other tissues (the equation for calculating the “score” is found in the Materials and Methodssection). […] We also examined selectivity by incubating peptides on nontarget tissues. Figure 3h,i depicts the “selectivity” results for the MUC2-selective and MUC5AC-selective peptides, respectively. Selectivity was calculated by determining the ratio of the “score” for a particular mucin to the sum of the “scores” for all mucins (see the Materials and Methods section for the equation used).
The top-performing hits from phage display were tested on ex vivo segments of porcine mucin-containing tissues (jejunal, stomach, and esophageal tissues) obtained from local abattoirs or laboratory-maintained pigs. Tissue was used either immediately after acquisition or after storage at −80 °C; tissue was used at most 1 week after acquisition and storage at −80 °C. After acquisition and equilibration to room temperature, the tissue was washed twice with 25 mL (each) of cold 1× PBS to remove undigested food and other debris. After washing and cleaning, the tissue was mounted between two magnetic plates with holes corresponding to a 48-well plate, as previously described,[72] such that the luminal side of the tissue was facing up (Figure S1). After the tissue was mounted, the amount of peptide/protein corresponding to 40 μg of AF647 was suspended in 200 μL of 1× PBS and added to the wells created by the magnetic plates. This was done 3× for each formulation to perform the experiment in triplicate. In addition, plain 1× PBS was added to one well to serve as the background measurement. […] After washing was complete, fluorescence imaging was performed using an IVIS Spectrum fluorescent imaging system (PerkinElmer), with an automatically calculated exposure time (usually ∼1 s), a 20 cm × 20 cm field of view, and an excitation/emission of 640/680 nm, respectively. The imaging results were analyzed using Living Image software to calculate the total fluorescence intensity for each well, and the results for each hit or control were averaged across different wells. […]
To better account for tissue-to-tissue variability, the results for each trial were reported as scores rather than using the raw fluorescence intensity. […]

MUC5AC = MUC5AC (Homo sapiens, UniProt P98088); experiment: Phage ELISA on MUC5AC; type: binding; conditions: phage clones displaying the peptide, 10^7 PFU/μL, MUC5AC-coated plate, anti-M13/HRP, TMB, 450 nm, blank subtracted, three wells; vs random library and insertless phage
Excerpt: We next sought to validate the binding efficiency of these identified phage clones. We tested phage clones displaying peptides M2.1, M2.2, M2.3, and M2.4 for binding to MUC2, and phage clones displaying peptides M5.1, M5.2, M5.3, and M5.4 for binding to MUC5AC. We utilized a bacteriophage enzyme-linked immunosorbent assay to test the binding of the peptide hits to the specific target mucins, MUC2 and MUC5AC (Figure 2d). The spectrophotometer reported absorbance values at 450 nm. The intensity of the absorbance signal is proportional to the amount of peptide-mucin binding present in each sample. The negative controls (library samples and insertless samples) served as references for nonspecific binding.
First, mucin was coated onto the surface of a plastic plate overnight using the same process as that performed for the original phage display. The next morning, three wells of each phage clone were prepared, with each phage solution having a titer of 10^7 PFU/μL to ensure a fair comparison between the clones. […]
However, instead of eluting the bound phage, 100 μL of 1:2000 anti-M13/HRP mouse monoclonal antibody was added to each well, and the antibody was allowed to incubate with the wells for 30 min. […] The resulting solutions were analyzed by absorbance spectroscopy at a wavelength of 450 nm to determine the relative amount of phage present in each well.

**Q.** With “CTDKASSSC (disulfide 1-9 (inferred)) [Peptide M5.1, CX7C cyclic peptide hit for MUC5AC]” as the sequence, how does the “Overall nanoparticle “score”” value ([1]; scaled between free AF647 (0) and WGA-AF647 (1), mean across trials n = 3) read?
**A.** 0.800

**Q.** What about the Selectivity ([1]; score for MUC5AC tissue / sum of scores for all mucins, n = 3) of the same sequence?
**A.** 0.370

**Q.** What about the “phage ELISA binding vs negative controls” value (MUC5AC) of the same sequence?
**A.** significantly greater binding to MUC5AC than the random library and insertless phage
